Measurements published in patent US10253081B2, “Glucagon analogues” (Zealand Pharma A/S, priority 2012, dated 2019).
pEC50: −log10 of the molar value. Several values for one entry are separate records, joined by “and”; a condition that tells them apart may be missing. Equal values may be shown once. Read-outs that look alike come from different tables or passages of the source. *1 amine or outer side, *2 acyl side, *3 side chain or, on linkers, in order; H or OH if unused. Where a SMILES comes first, the peptide text is derived from it. Side-chain parts run from the residue outwards. [ ]: non-standard residue; d: D form. The star is where a group is joined. γGlu = O=C(O)[C@H](CCC(=O)[*:2])N[*:1]; Palmitoyl = CCCCCCCCCCCCCCCC(=O)*; Aib = CC(C)(N)C(=O)O

Tests used:
[1] = biological target: T1, endogenous glucagon receptor (Rattus norvegicus, UniProt P30082); test: Agonistic activity on endogenous glucagon receptor (glycogen synthesis rate in primary rat hepatocytes); assay type: cell-based; settings: inhibition of glycogen synthesis rate, 3 hours, read-out: EC50 GLP-1R Rat hepat.
T1 construct: Agonistic activity of the test compounds on endogenous glucagon receptor; endogenous in cells; host or cells: primary rat hepatocytes
T1 sequence (P30082 27-485): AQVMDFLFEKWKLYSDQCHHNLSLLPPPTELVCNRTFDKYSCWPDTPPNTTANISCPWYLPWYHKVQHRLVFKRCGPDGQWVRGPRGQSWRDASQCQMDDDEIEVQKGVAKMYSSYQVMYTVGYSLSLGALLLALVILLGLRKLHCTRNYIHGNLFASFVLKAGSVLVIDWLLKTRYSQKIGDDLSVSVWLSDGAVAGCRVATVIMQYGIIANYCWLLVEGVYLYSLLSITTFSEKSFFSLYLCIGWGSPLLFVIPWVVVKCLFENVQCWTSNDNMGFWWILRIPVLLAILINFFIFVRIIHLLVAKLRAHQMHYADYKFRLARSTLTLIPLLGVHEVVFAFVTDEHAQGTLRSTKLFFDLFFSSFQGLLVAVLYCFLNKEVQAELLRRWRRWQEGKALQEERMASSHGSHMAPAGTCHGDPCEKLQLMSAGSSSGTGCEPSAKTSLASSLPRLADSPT
Method in brief: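 Primary rat hepatocytes (40,000 cells/well, cultured 24 h) incubated 3 h with compound in KRBH buffer with 0.1% BSA, 22.5 mM glucose and D-[U14C]glucose. 14C incorporated into precipitated glycogen counted, background-subtracted and expressed as % of 0.1% DMSO vehicle (100% CTL). pEC50 from cpm versus log concentration; agonism lowers glycogen synthesis.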

[2] = Pharmacokinetic parameters after subcutaneous and intravenous administration to mice; assay type: in vivo; settings: male, mouse, plasma, 20 nmol/kg, C57Bl/6J mice; for half-life: read-out: Terminal half life (converted); for MRT: read-out: Mean Residence Time
Procedure: Pharmacokinetic parameters of the test compounds were determined after subcutaneous and intravenous administration to C57Bl/6J mice.
8 week old male C57Bl/6J mice were obtained from Taconic (Denmark) weighing approximately 20-25 g at time of arrival at the test facility. The mice were caged in European standard cages type III with light cycle of 12-hour dark and 12-hour light (lights on 06.00). Both diet, Altromin 1324 (Altromin, Germany), and water was administered ad libitum during the whole experimental period. The 8-11 week animals were imported to the laboratory at least 7 days before the start up of the experimental procedure in order to assure proper acclimatization. After sampling the mice were euthanized by cervical dislocation.
The compounds were first dissolved in 0.096% aqueous ammonia to a nominal concentration of 2 mg/ml, and then diluted to the desired dosing strength (4 μM) in sterile PBS containing 25 mM phosphate buffer, pH 7.4. Subcutaneous and intravenous injections corresponding to 20 nmol/kg were given. The GLP-1-glucagon dual agonists were administered for subcutaneous dosing in the neck region and via a lateral tail vein for intravenous dosing.
Blood samples (250 μl) were collected from the periorbital plexus at time points 0.5, 2, 4, 6, 12, 16, 20, 24 h for subcutaneous and 10, 30 min, 3, 6, 12, 18, 24 h for intravenous administration into ice-chilled K3EDTA tubes and centrifuged for 5 minutes at 4° C. within 20 minutes of sampling. Plasma (>100 μl) was separated to ice-chilled Micronic tubes, immediately frozen, and kept at −70° C. until analysed for plasma concentration for the respective GLP-1-glucagon compound using LC-MS/MS. Individual plasma concentration-time profiles were analysed by a non-compartmental approach in WinNonLin v6.3 (Pharsight inc, Mountain View, Calif., USA), and the resulting pharmacokinetic parameters determined.

SMILES	pEC50 [1]	clearance ([2]; IV) [mL/min/kg]	half-life ([2]; IV) [h]	Tmax ([2]; SC) [h]	bioavailability ([2]; SC) [%]	MRT ([2]; SC) [h]	half-life ([2]; SC) [h]
CCCCCCCCCCCCCCCC(=O)N[C@@H](CCC(=O)NCCCC[C@H](NC(=O)[C@H](CO)NC(=O)[C@H](CC(=O)O)NC(=O)[C@H](CC(C)C)NC(=O)[C@H](Cc1ccc(O)cc1)NC(=O)[C@H](CCCCN)NC(=O)[C@H](CO)NC(=O)[C@H](Cc1ccc(O)cc1)NC(=O)[C@H](CC(=O)O)NC(=O)[C@H](CO)NC(=O)[C@@H](NC(=O)[C@H](Cc1ccccc1)NC(=O)[C@@H](NC(=O)CNC(=O)[C@H](CCC(N)=O)NC(=O)C(C)(C)NC(=O)[C@@H](N)Cc1c[nH]cn1)[C@@H](C)O)[C@@H](C)O)C(=O)N[C@@H](C)C(=O)N[C@@H](C)C(=O)N[C@@H](Cc1c[nH]cn1)C(=O)N[C@@H](CC(=O)O)C(=O)N[C@@H](Cc1ccccc1)C(=O)N[C@H](C(=O)N[C@@H](CCC(=O)O)C(=O)N[C@@H](Cc1c[nH]c2ccccc12)C(=O)N[C@@H](CC(C)C)C(=O)N[C@@H](CC(C)C)C(=O)N[C@@H](CO)C(=O)O)C(C)C)C(=O)O [Compound 1, H-H-Aib-QGTFTSDYSKYLDS-K(Hexadecanoyl-isoGlu)-AAHDFVEWLLS-OH] (H-H[Aib]QGTFTSDYSKYLDSK([γGlu-Palmitoyl])AAHDFVEWLLS-OH)	9.89 and 10.70	0.17	5.2	4	52	12.6	6.2
CCCCCCCCCCCCCCCC(=O)N[C@@H](CCC(=O)NCCCC[C@H](NC(=O)[C@H](CCC(=O)O)NC(=O)[C@H](CC(=O)O)NC(=O)[C@H](CC(C)C)NC(=O)[C@H](Cc1ccc(O)cc1)NC(=O)[C@H](CCCCN)NC(=O)[C@H](CO)NC(=O)[C@H](Cc1ccc(O)cc1)NC(=O)[C@H](CC(=O)O)NC(=O)[C@H](CO)NC(=O)[C@@H](NC(=O)[C@H](Cc1ccccc1)NC(=O)[C@@H](NC(=O)CNC(=O)[C@H](CCC(N)=O)NC(=O)C(C)(C)NC(=O)[C@@H](N)Cc1c[nH]cn1)[C@@H](C)O)[C@@H](C)O)C(=O)N[C@@H](C)C(=O)N[C@@H](C)C(=O)N[C@@H](CCCCN)C(=O)N[C@@H](CC(=O)O)C(=O)N[C@@H](Cc1ccccc1)C(=O)N[C@H](C(=O)N[C@@H](CCC(=O)O)C(=O)N[C@@H](Cc1c[nH]c2ccccc12)C(=O)N[C@@H](CC(C)C)C(=O)N[C@@H](CC(C)C)C(=O)N[C@@H](CO)C(=O)N[C@@H](C)C(N)=O)[C@@H](C)CC)C(=O)O [Compound 4, H-H-Aib-QGTFTSDYSKYLDE-K(Hexadecanoyl-isoGlu)-AAKDFIEWLLSA-NH2] (H-H[Aib]QGTFTSDYSKYLDEK([γGlu-Palmitoyl])AAKDFIEWLLSA-NH2)	9.46	0.185	7.4	4	53	12.5	6.4
CCCCCCCCCCCCCCCC(=O)N[C@@H](CCC(=O)NCCCC[C@H](NC(=O)[C@H](CO)NC(=O)[C@H](CC(=O)O)NC(=O)[C@H](CC(C)C)NC(=O)[C@H](Cc1ccc(O)cc1)NC(=O)[C@H](CCCCN)NC(=O)[C@H](CO)NC(=O)[C@H](Cc1ccc(O)cc1)NC(=O)[C@H](CC(=O)O)NC(=O)[C@H](CO)NC(=O)[C@@H](NC(=O)[C@H](Cc1ccccc1)NC(=O)[C@@H](NC(=O)CNC(=O)[C@H](CCC(N)=O)NC(=O)[C@H](CO)NC(=O)[C@@H](N)Cc1c[nH]cn1)[C@@H](C)O)[C@@H](C)O)C(=O)N[C@@H](C)C(=O)N[C@@H](C)C(=O)N[C@@H](Cc1c[nH]cn1)C(=O)N[C@@H](CC(=O)O)C(=O)N[C@@H](Cc1ccccc1)C(=O)N[C@H](C(=O)N[C@@H](CCC(=O)O)C(=O)N[C@@H](Cc1c[nH]c2ccccc12)C(=O)N[C@@H](CC(C)C)C(=O)N[C@@H](CC(C)C)C(=O)N[C@@H](CO)C(N)=O)C(C)C)C(=O)O [Compound 8, H-HSQGTFTSDYSKYLDS-K(Hexadecanoyl-isoGlu)-AAHDFVEWLLS-NH2] (H-HSQGTFTSDYSKYLDSK([γGlu-Palmitoyl])AAHDFVEWLLS-NH2)	8.96	0.128	3.9	4	42	8.1	4.1

Further compounds by rising pEC50 [1], results first:

pEC50 [1]	clearance ([2]; IV) [mL/min/kg]	half-life ([2]; IV) [h]	Tmax ([2]; SC) [h]	bioavailability ([2]; SC) [%]	MRT ([2]; SC) [h]	half-life ([2]; SC) [h]	SMILES
8.54	0.157	3.7	4	47	10.6	4.3	CCCCCCCCCCCCCCCC(=O)N[C@@H](CCC(=O)NCCCC[C@H](NC(=O)[C@H](CO)NC(=O)[C@H](CC(=O)O)NC(=O)[C@H](CC(C)C)NC(=O)[C@H](Cc1ccc(O)cc1)NC(=O)[C@H](CCCNC(=N)N)NC(=O)[C@H](CO)NC(=O)[C@H](Cc1ccc(O)cc1)NC(=O)[C@H](CC(=O)O)NC(=O)[C@H](CO)NC(=O)[C@@H](NC(=O)[C@H](Cc1ccccc1)NC(=O)[C@@H](NC(=O)CNC(=O)[C@H](CCC(N)=O)NC(=O)[C@H](CO)NC(=O)[C@@H](N)Cc1c[nH]cn1)[C@@H](C)O)[C@@H](C)O)C(=O)N[C@@H](C)C(=O)N[C@@H](C)C(=O)N[C@@H](CCC(=O)O)C(=O)N[C@@H](CC(=O)O)C(=O)N[C@@H](Cc1ccccc1)C(=O)N[C@H](C(=O)N[C@@H](CCC(=O)O)C(=O)N[C@@H](Cc1c[nH]c2ccccc12)C(=O)N[C@@H](CC(C)C)C(=O)N[C@@H](CC(C)C)C(=O)N[C@@H](CCCNC(=N)N)C(=O)N[C@@H](C)C(N)=O)C(C)C)C(=O)O [Compound 6, H-HSQGTFTSDYSRYLDS-K(Hexadecanoyl-isoGlu)-AAEDFVEWLLRA-NH2] (H-HSQGTFTSDYSRYLDSK([γGlu-Palmitoyl])AAEDFVEWLLRA-NH2)
9.80	0.192	4.1	6	52	9.8	3.9	CCCCCCCCCCCCCCCC(=O)N[C@@H](CCC(=O)NCCCC[C@H](NC(=O)[C@H](CO)NC(=O)[C@H](CC(=O)O)NC(=O)[C@H](CC(C)C)NC(=O)[C@H](Cc1ccc(O)cc1)NC(=O)[C@H](CCCCN)NC(=O)[C@H](CO)NC(=O)[C@H](Cc1ccc(O)cc1)NC(=O)[C@H](CC(=O)O)NC(=O)[C@H](CO)NC(=O)[C@@H](NC(=O)[C@H](Cc1ccccc1)NC(=O)[C@@H](NC(=O)CNC(=O)[C@H](CCC(N)=O)NC(=O)[C@H](CO)NC(=O)[C@@H](N)Cc1c[nH]cn1)[C@@H](C)O)[C@@H](C)O)C(=O)N[C@@H](C)C(=O)N[C@@H](C)C(=O)N[C@@H](Cc1c[nH]cn1)C(=O)N[C@@H](CC(=O)O)C(=O)N[C@@H](Cc1ccccc1)C(=O)N[C@H](C(=O)N[C@@H](CCC(=O)O)C(=O)N[C@@H](Cc1c[nH]c2ccccc12)C(=O)N[C@@H](CC(C)C)C(=O)N[C@@H](CC(C)C)C(=O)N[C@@H](CCCNC(=N)N)C(=O)N[C@@H](C)C(=O)O)C(C)C)C(=O)O [Compound 3, H-HSQGTFTSDYSKYLDS-K(Hexadecanoyl-isoGlu)-AAHDFVEWLLRA-OH] (H-HSQGTFTSDYSKYLDSK([γGlu-Palmitoyl])AAHDFVEWLLRA-OH)
10.52	0.185	4	4	81	7.6	3.8	CCCCCCCCCCCCCCCC(=O)N[C@@H](CCC(=O)NCCCC[C@H](NC(=O)[C@H](CO)NC(=O)[C@H](CC(=O)O)NC(=O)[C@H](CC(C)C)NC(=O)[C@H](Cc1ccc(O)cc1)NC(=O)[C@H](CCCCN)NC(=O)[C@H](CO)NC(=O)[C@H](Cc1ccc(O)cc1)NC(=O)[C@H](CC(=O)O)NC(=O)[C@H](CO)NC(=O)[C@@H](NC(=O)[C@H](Cc1ccccc1)NC(=O)[C@@H](NC(=O)CNC(=O)[C@H](CCC(N)=O)NC(=O)C(C)(C)NC(=O)[C@@H](N)Cc1c[nH]cn1)[C@@H](C)O)[C@@H](C)O)C(=O)N[C@@H](C)C(=O)N[C@@H](C)C(=O)N[C@@H](Cc1c[nH]cn1)C(=O)N[C@@H](CC(=O)O)C(=O)N[C@@H](Cc1ccccc1)C(=O)N[C@H](C(=O)N[C@@H](CCC(=O)O)C(=O)N[C@@H](Cc1c[nH]c2ccccc12)C(=O)N[C@@H](CC(C)C)C(=O)N[C@@H](CCC(=O)O)C(=O)N[C@@H](CO)C(=O)N[C@@H](C)C(N)=O)C(C)C)C(=O)O [Compound 5, H-H-Aib-QGTFTSDYSKYLDS-K(Hexadecanoyl-isoGlu)-AAHDFVEWLESA-NH2] (H-H[Aib]QGTFTSDYSKYLDSK([γGlu-Palmitoyl])AAHDFVEWLESA-NH2)
